According to PMC7939386 (The Journal of Biological Chemistry, 2021):

Legend:
KIF1A-560-GFP = target: T1, KIF1A-560-GFP (Rattus norvegicus, UniProt F1M4A4); experiment: single-molecule TIRF microtubule off-rate versus [ADP], hyperbolic fit; assay type: binding; details: motor bound to Taxol-stabilized microtubules; BRB80 (80 mM PIPES, pH 6.9), 25 °C; fit ± 95% CI; authors equate K0.5 with KD
T1 construct: motor head and neck linker, residues 1-368, followed by Drosophila melanogaster KHC neck coil and coil-1 (216 residues by b8; b50 says additional 216 residues), C-terminal GFP and His6; bacterial expression; homodimer
T1 sequence (F1M4A4 1-368): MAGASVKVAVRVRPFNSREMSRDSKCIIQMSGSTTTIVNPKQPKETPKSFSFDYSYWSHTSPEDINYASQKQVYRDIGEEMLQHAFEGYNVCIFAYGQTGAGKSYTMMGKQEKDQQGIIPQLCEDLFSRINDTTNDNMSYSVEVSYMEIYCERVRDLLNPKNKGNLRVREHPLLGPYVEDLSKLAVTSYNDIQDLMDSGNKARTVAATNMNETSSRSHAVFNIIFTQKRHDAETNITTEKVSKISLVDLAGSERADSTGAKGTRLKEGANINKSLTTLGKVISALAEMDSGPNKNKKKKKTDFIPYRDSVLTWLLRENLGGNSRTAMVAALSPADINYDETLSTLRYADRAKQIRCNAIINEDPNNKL

KIF1A-406 [1] = target: T2, KIF1A-406 (Rattus norvegicus, UniProt F1M4A4); experiment: stopped-flow dissociation, ADP-bound motor flushed against […] mADP; assay type: binding; details: no microtubules; BRB80, pH 6.9, 25 °C; b26 prints the error as ± 0.005
T2 construct: motor head and neck linker, residues 1-368, followed by 61 residues of Drosophila melanogaster KHC neck coil (printed 'residues 445-405', probably 345-405) for dimerization; C-terminal His6; E. coli-type bacterial expression; homodimer
T2 sequence (F1M4A4 1-368): T1 sequence (F1M4A4 1-368)

KIF1A-406 [2] = target: T2, KIF1A-406; experiment: stopped-flow nucleotide-triggered half-site release of mADP, Michaelis-Menten fit; assay type: biochemical; details: one-head-bound complex with 3 μM Taxol-stabilized microtubules, mADP in tethered head; BRB80 (80 mM PIPES, 1 mM MgCl2, pH 6.9), 25 °C; fit ± 95% CI; read-out: Experimental

Kd (KIF1A-560-GFP) | mADP dissociation rate constant (KIF1A-406 [1]) | Km (KIF1A-406 [2]) | SMILES
93 ± 204 µM | 0.26 ± 0.001 s⁻¹ | – | Nc1ncnc2c1ncn2[C@@H]1O[C@H](COP(=O)(O)OP(=O)(O)O)[C@@H](O)[C@H]1O [ADP]
– | – | 119 ± 21 µM | Nc1ncnc2c1ncn2[C@@H]1O[C@H](COP(=O)(O)OP(=O)(O)OP(=O)(O)O)[C@@H](O)[C@H]1O [ATP]
